Results taken from patent US20250231178A1, “A BIOMARKER FOR DETERMINING ALZHEIMER'S DISEASE” (UNIVERSITY OF EASTERN FINLAND, priority 2022, published 2025).

Assays:
[1] = target: T1, PIEZO1 receptor in red blood cells (RBCs) (Homo sapiens, UniProt Q92508); test: Yoda1-induced Ca flux in red blood cells, Fluo4 am, microtiter plate format and fluorometer; format: cell-based; details: n=4, mean±SEM, plate reader
T1 construct: indicating the Ca^2+ influx into the red blood cells (RBCs) through PIEZO1 ion channels; endogenous in cells; host or cells: Red blood cells from venous blood of healthy, MCI and AD donors
Experimental: Mann-Whitney test, two-tailed, *p<0.05. […] Signals recorded without addition of Fluo4, with and without Yoda1, were subtracted from their Fluo4 loaded counterparts to give the final read-outs used in normalising the results.
300 μL of blood from the healthy persons and AD patients was collected into the blood sampling tubes with sodium citrate to prevent coagulation. The samples were washed twice with PBS buffer (Ca^2+ and Mg^2+ free) by centrifugation at 300 G for 5 minutes. […] of the red blood cell (RBC) pellet was divided into […], 50 μL for fluorescent staining and 50 μL for the negative control. […] The samples were distributed into the microtitration plate (96-wells, 180 μL per well), after which the ground level of fluorescence (485 nm/535 nm, 1.0 s, Victor Wallac) was measured immediately. 20 μL of DMSO (for vehicle control) or 20 μL of 5 μM Yoda1 (for PIEZO1 activity) was added into the wells, and the fluorescence was measured immediately. The fluorescence signal of the sample having no Fluo4 am was subtracted from the fluorescence signals of the vehicle and Yoda1 samples treated with Fluo4 am. The increase in fluorescence upon addition of Yoda1 was normalized to the signal measured before addition of Yoda1. The normalized increase fluorescence was 2.62±0.42 for healthy and 5.64±0.23 for AD (mean #SEM) (FIG. 3G). […]

[2] = target: T1, PIEZO1 receptor in red blood cells (RBCs); test: Yoda1-induced Ca flux in red blood cells, Fluo4 am, flow cytometry (FACS) time-lapse; format: cell-based; details: for normalized MFI levels (Fluo4 am median fluorescence intensity normalized on baseline): 10 μM Yoda1, 60 s of recording
Experimental: The venous blood samples from healthy subjects, patients with mild cognitive impairment (MCI), and patients with Alzheimer's disease (AD) were collected into BD Vacutainer® blood collection tubes containing the K3-EDTA anti-coagulant. 150 μl of whole blood was taken for further processing, washed two times with 10 ml of phosphate-buffered saline (PBS) (5 mins, 300 g, RT (=about 20-25° C.) to remove plasma. After the second wash, the supernatant was removed and 50 μl of red blood cells (RBCs) were transferred to clean falcon tube and resuspended in 200 μl PBS (250 μl total volume of cell suspension). 250 μl of Fluo4 am AM (Thermo Fisher Scientific) fluorescent dye was added and cells were incubated for 30 minutes at 37° C. in dark.
After the incubation, cell suspension was washed twice with 5 ml of PBS, followed by one wash with HBSS (5 mins, 300 g, RT). Supernatant was carefully removed with pipette and 50 μl pellet was resuspended in 450 μl of Hank's Balanced Salt Solution (HBSS) to form 10% cell suspension. 10 μl of 10% cell suspension was transferred to 390 μl of RPMI/FBS (10:1) (400 μl final volume). This cell suspension was further used for flow cytometry time-lapse assessment using CytoFLEX S flow cytometer (Beckman Coulter, USA).
At the start of the recording, at t=0 seconds, baseline fluorescence was recorded for 20 seconds. At t=20 seconds, Yoda1 in DMSO was applied to the sample at the final concentration of 5 or 10 μM. At t=4 minutes and 20 seconds, ionomycin, serving as the positive control, was applied at the final concentration 10 μM. Recording was finished at t=5 minutes 30 seconds.
FIGS. 3A-3C plot the mean values of Ca^2+ signal for each group with 10 μM Yoda1 spanning from BL (t=0 seconds) to t=4 minutes, while the FIGS. 3D-3F show the measurements of individual samples at t=60 seconds.
All flow cytometric data were analyzed using CytExpert Software v 2.4 (Beckman Coulter Inc., CA, USA). Yoda1-induced Ca flux was measured by using Fluo4 am median fluorescence intensity (MFI) of single cells after Yoda1 application at different time points—baseline (before application of Yoda1 at 10 μM concentrations), and every 20 sec of the recording.
Data were analyzed using GraphPad Prism Software (CA, USA). Statistical analysis was performed using Mann-Whitney test, two-tailed. The data are presented as mean±SEM.

T1 sequence (Q92508 whole entry): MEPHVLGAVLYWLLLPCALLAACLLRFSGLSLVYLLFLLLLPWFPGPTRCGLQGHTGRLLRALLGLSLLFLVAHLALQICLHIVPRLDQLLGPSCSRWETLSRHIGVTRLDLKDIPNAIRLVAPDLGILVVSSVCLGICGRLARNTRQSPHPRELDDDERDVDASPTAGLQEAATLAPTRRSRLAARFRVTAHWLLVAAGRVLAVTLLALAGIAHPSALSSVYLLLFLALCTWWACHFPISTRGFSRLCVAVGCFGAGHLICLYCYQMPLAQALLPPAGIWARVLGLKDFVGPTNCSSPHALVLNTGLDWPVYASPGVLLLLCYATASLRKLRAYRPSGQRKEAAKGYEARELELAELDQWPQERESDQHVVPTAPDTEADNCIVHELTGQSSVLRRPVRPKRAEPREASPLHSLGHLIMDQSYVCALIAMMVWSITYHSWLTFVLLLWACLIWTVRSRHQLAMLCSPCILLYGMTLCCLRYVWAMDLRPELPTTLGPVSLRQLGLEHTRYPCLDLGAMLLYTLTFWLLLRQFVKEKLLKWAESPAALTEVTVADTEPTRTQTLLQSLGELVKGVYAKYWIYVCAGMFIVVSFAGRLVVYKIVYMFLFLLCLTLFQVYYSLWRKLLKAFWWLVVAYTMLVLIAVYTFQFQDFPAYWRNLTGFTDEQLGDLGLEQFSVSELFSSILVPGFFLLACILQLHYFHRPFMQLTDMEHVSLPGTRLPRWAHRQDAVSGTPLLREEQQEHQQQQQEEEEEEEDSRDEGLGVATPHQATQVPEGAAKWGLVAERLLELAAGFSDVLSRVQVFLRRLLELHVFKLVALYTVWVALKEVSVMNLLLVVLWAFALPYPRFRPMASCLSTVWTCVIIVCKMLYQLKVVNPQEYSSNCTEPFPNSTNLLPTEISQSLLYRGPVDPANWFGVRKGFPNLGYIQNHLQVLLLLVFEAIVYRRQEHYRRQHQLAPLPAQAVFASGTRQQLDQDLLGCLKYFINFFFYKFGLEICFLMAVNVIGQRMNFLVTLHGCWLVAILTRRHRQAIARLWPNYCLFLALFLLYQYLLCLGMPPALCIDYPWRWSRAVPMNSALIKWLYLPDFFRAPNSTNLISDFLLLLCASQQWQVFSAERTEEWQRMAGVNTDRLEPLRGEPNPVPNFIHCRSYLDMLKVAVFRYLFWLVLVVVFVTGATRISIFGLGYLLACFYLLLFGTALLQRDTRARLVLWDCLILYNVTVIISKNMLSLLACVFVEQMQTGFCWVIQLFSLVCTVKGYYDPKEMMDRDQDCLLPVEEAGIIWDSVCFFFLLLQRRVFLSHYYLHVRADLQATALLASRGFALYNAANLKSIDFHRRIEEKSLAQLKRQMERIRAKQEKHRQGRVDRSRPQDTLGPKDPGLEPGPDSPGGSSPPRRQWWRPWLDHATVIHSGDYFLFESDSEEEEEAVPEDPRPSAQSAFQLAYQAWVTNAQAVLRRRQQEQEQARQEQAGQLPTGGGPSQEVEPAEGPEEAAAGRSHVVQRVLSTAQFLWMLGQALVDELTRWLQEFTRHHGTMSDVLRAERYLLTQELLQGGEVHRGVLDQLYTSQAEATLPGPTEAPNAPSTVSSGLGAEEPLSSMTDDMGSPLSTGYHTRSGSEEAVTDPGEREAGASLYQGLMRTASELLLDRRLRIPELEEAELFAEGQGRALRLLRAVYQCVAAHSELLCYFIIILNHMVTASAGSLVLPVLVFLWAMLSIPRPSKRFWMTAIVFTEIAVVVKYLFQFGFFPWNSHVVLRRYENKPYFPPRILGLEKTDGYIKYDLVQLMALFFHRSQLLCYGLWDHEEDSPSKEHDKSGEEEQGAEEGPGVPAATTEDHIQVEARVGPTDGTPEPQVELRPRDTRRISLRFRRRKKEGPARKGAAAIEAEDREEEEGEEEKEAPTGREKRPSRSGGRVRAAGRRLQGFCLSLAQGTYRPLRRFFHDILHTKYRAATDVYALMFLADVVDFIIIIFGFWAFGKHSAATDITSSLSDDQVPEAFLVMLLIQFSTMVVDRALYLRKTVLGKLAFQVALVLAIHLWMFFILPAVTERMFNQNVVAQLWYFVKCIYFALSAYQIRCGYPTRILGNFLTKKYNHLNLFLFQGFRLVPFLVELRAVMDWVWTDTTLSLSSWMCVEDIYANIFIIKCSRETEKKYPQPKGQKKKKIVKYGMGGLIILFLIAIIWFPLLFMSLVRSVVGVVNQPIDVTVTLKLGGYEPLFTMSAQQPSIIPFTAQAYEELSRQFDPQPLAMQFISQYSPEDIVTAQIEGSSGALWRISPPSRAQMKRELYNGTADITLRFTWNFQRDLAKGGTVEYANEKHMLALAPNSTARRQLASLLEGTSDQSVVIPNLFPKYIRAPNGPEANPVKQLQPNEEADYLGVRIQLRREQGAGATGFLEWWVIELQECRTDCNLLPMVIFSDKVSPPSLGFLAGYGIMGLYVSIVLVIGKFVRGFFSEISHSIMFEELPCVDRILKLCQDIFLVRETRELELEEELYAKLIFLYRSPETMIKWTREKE

Clc1cccc(Cl)c1CSc1nnc(-c2cnccn2)s1 [Yoda1, 2-[(2,6-Dichlorophenyl)methylsulfanyl]-5-pyrazin-2-yl-1,3,4-thiadiazole]
normalized increase fluorescence (signal after Yoda1 normalized to signal before addition) ([1]; 5 μM Yoda1, RBCs of AD patients): 5.64±0.23 | normalized increase fluorescence (signal after Yoda1 normalized to signal before addition) ([1]; 5 μM Yoda1, RBCs of healthy persons): 2.62±0.42 | normalized MFI levels (Fluo4 am median fluorescence intensity normalized on baseline) ([2]; RBCs of AD patients, n=21, mean±SEM): 8.57±0.6 | normalized MFI levels (Fluo4 am median fluorescence intensity normalized on baseline) ([2]; RBCs of MCI patients, n=26, mean±SEM): 7.9±0.48 | normalized MFI levels (Fluo4 am median fluorescence intensity normalized on baseline) ([2]; RBCs of control (healthy) subjects, n=23, mean±SEM): 5.64±0.27 | time at which maximum Fluo4 am MFI levels were reached ([2]; 10 μM Yoda1 applied at 20 s of recording, levels remained similar till end of 4 min recording): ≤ 60 s
